In patent US10131558B1, “Compositions, methods, and/or systems for managing sulfide” (priority 2016, dated 2018):
Where two headings read alike, the source gives them in different places.

How the values were obtained:
[1] = cited from earlier work
[2] = Anaerobic sulfide treatment: pure oxygen versus pure oxygen + ferric MGDA and nitrate; conditions: for Sulfide: control 33, 10 cc pure oxygen, ~0.1 ml ~0.03 M Fe MGDA with ~8.75 mg nitrate where used
Description: Three 300 milliliter Supelco test flasks were utilized for conducting the testing. Each flask had two valves and a single port for a septum to inject chemistry into the vessel. Each test flask was completely filled to zero headspace with wastewater from a municipal wastewater treatment facility that had been spiked with sodium sulfide. […] Test flasks were left at room temperature for two hours to assure that any oxygen within the wastewater in the test flasks was consumed prior to the study so as to mimic anaerobic wastewater conditions to initiate the study. […] Oxygen was injected simultaneously with a slight opening of a valve on the cylinder so that wastewater could could be displaced by the incoming volume of oxygen. […] The control sample flask received no injection of any ingredients. After injection of ingredients into each test flask, the flasks were placed on a New Brunswick Shaker Table and shaken for variable periods of time at ˜200 rpm's. After each test period flasks were removed and a sample extracted for sulfide testing using a La Motte Sulfide Color Comparison Test Kit. Sample for the control was taken at time zero for each study.

[3] = Anaerobic sulfide treatment: pure oxygen versus pure oxygen + ferric MGDA; conditions: 10 cc pure oxygen, ~0.1 ml ~0.03 M Fe MGDA where used
[4] = tested on: total heterotrophic bacteria; experiment: Disinfection of wastewater using chelated iron compounds; format: cell-based; conditions: 30 min, raw average 18,188 CFUs; for Test 3 CFUs/ml 12 ppm Fe-Chelant: chelant alone, no H2O2
Method: The clarified supernatant was then pored off of the top of the settled solids within the sample. The supernatant was then mixed and four samples were collected to determine untreated heterotrophic bacteria counts. […] were dissolved in distilled water at 0.4334M. Ferric chloride was added in amounts to achieve saturation of chelant sites on the respective chelants. […] Twenty individual liter samples of supernatant were then decanted from the well-mixed wastewater sample for testing. Four chelated iron products with peroxide were tested at two test concentrations and compared to samples receiving peroxide only and iron chelate only. […] Samples were then decanted to sterile sample containers containing sodium thiosulfate to stop the oxidation process and preserve the sample. Samples were then placed in a refrigerator until all samples were finished. Samples were packaged in a standard cooler with ice packs and sent via overnite delivery to ProChem Labs in Lynchburg, Va. for analysis for total heterotrophic bacteria counts.

[5] = Treatment of sulfides in municipal wastewater using ferric chelants and ozone; conditions: ozone ~13.4 ppm, 4 ppm ferric chelant where used; for sulfide remaining: start 13.70
Description: The raw wastewater received a dose of 4 ppm of each of the four ferric chelants (mass calculated as chelant) just prior to addition of ozone.
Ozone addition was accomplished using an ozone generator from Ozone Solutions, Sioux Center, Iowa. The generator was capable of generating up to 2 grams per hour of ozone. Injection of ozone into the wastewater was accomplished using an injection system from Ozone Solutions called the H2O-Mini. The unit is designed to treat from 1.5 to 5.7 liters per minute of wastewater. The unit was set up to deliver 6.7 mg/minute of dissolved ozone (assumed the 80% efficiency of dissolution noted by the manufacturer) to wastewater passing the injection nozzle within the H2O-mini. Each test was designed for maximum wastewater flow through the H2O-mini (5.7 liters/min).
An objective of the study will be to treat most, but not all, of the sulfide present within the individual test samples in order to determine which treatment was more efficient than the others.
Samples were taken over twenty minutes of contact time from the recirculation vessel after ozonation. For each of the four ferric chelant studies, chelants were added to the wastewater recirculation vessels just prior to starting the injection of ozone and recirculation of the liquids. The injection of ozone was applied over the prescribed period and sampled as before in the ozone only experiment.

[6] = Treatment of sulfides in municipal wastewater using ferric chelants and hydrogen peroxide; conditions: 20 ppm chelant and 105.8 ppm hydrogen peroxide
[7] = Nitrate addition to sewage, lab jar tests and sewage collection system test

S [HS^−]
Proportion in dissolved sulfide ([1]; pH 5.0): ~0.01 | Proportion in dissolved sulfide ([1]; pH 6.0): ~0.09 | Proportion in dissolved sulfide ([1]; pH 6.2): ~0.14 | Proportion in dissolved sulfide ([1]; pH 6.4): ~0.20 | Proportion in dissolved sulfide ([1]; pH 6.6): ~0.28 | Proportion in dissolved sulfide ([1]; pH 6.8): ~0.39 | Proportion in dissolved sulfide ([1]; pH 7.0): ~0.50 | Proportion in dissolved sulfide ([1]; pH 7.2): ~0.61 | Proportion in dissolved sulfide ([1]; pH 7.4): ~0.72 | Proportion in dissolved sulfide ([1]; pH 7.6): ~0.80 | Proportion in dissolved sulfide ([1]; pH 7.8): ~0.86 | Proportion in dissolved sulfide ([1]; pH 8.0): ~0.91 | Proportion in dissolved sulfide ([1]; pH 8.2): ~0.941 | Proportion in dissolved sulfide ([1]; pH 8.4): ~0.961 | Proportion in dissolved sulfide ([1]; pH 8.6): ~0.975 | Proportion in dissolved sulfide ([1]; pH 8.8): ~0.986 | Proportion in dissolved sulfide ([1]; pH 9.0): ~0.99

O=O [Oxygen, oxygen]
Sulfide ([2]; 5 min): 30 | Sulfide ([2]; 10 min): 16 | sulfide reduced ([2]; after 10 minutes of contact): approximately 50% | Sulfide ([3]; Trial 1, 5 min, control 33, 300 ml flask): 25 mg/L | Sulfide ([3]; Trial 2, 5 min, control 31): 25 mg/L | Sulfide ([3]; Trial 2, 22 min, control 31): 1.5 mg/L

O=C([O-])CN(CCO)CC(=O)[O-].[Fe+3] [Fe-HEIDA]
Test 1 CFUs/ml 19.8 ppm H2O2 6 ppm Fe-Chelant [4]: 1350 CFUs/ml | Test 2 CFUs/ml 39.6 ppm H2O2 12 ppm Fe-Chelant [4]: 84 CFUs/ml | Test 3 CFUs/ml 12 ppm Fe-Chelant [4]: 16,700 CFUs/ml | Overall total percentage of sulfide reduction [5]: 60% | Overall total percentage of sulfide reduction ([5]; listed as ferric HEIDA): 60% | sulfide remaining ([5]; 5 min contact): 6.80 ppm | sulfide remaining ([5]; 10 min contact): 6.00 ppm | sulfide remaining ([5]; 20 min contact): 5.40 ppm

O=C([O-])CN(CC(=O)[O-])CC(=O)[O-].[Fe+3] [Fe-NTA]
Test 1 CFUs/ml 19.8 ppm H2O2 6 ppm Fe-Chelant [4]: 370 CFUs/ml | Test 2 CFUs/ml 39.6 ppm H2O2 12 ppm Fe-Chelant [4]: 75 CFUs/ml | Test 3 CFUs/ml 12 ppm Fe-Chelant [4]: 18,300 CFUs/ml | Overall total percentage of sulfide reduction [5]: 91% | Overall total percentage of sulfide reduction ([5]; listed as ferric NTA): 91% | sulfide remaining ([5]; 5 min contact): 3.40 ppm | sulfide remaining ([5]; 10 min contact): 1.90 ppm | sulfide remaining ([5]; 20 min contact): 1.30 ppm | sulfide reduction after 15 minutes [6]: 70.2%

O=[N+]([O-])[O-].[Na+] [sodium nitrate]
reduction in sewage biological oxygen demand, BOD [7]: ≤ 70% | dissolved hydrogen sulfide after dosing ([7]; sewage containing over approximately 50 mg/L dissolved hydrogen sulfide): < 0.1 mg/L

O=C([O-])CN(CCN(CC(=O)[O-])CC(=O)[O-])CC(=O)[O-].[Fe+3] [Fe-EDTA]
Test 1 CFUs/ml 19.8 ppm H2O2 6 ppm Fe-Chelant [4]: 360 CFUs/ml | Test 2 CFUs/ml 39.6 ppm H2O2 12 ppm Fe-Chelant [4]: 59 CFUs/ml | Test 3 CFUs/ml 12 ppm Fe-Chelant [4]: 18,200 CFUs/ml | Overall total percentage of sulfide reduction [5]: 64% | Overall total percentage of sulfide reduction ([5]; listed as ferric EDTA): 64% | sulfide remaining ([5]; 5 min contact): 6.20 ppm | sulfide remaining ([5]; 10 min contact): 5.10 ppm | sulfide remaining ([5]; 20 min contact): 4.90 ppm | sulfide reduction after 15 minutes [6]: 60%

O=[O+][O-] [Ozone, ozone, reference compound]
Overall total percentage of sulfide reduction [5]: 46% | sulfide remaining ([5]; 5 min contact): 8.05 ppm | sulfide remaining ([5]; 10 min contact): 7.50 ppm | sulfide remaining ([5]; 20 min contact): 7.40 ppm
